According to patent US6417212B1, “Modulators of peroxisome proliferator activated receptors” (Eli Lilly & Company, priority 1999, dated 2002):

Test system: db/db mice
Test: Evaluation of glucose levels in db/db mice
Assay type: in vivo
Settings: Mus musculus, 168 h; 30 mg/kg daily oral gavage for 7 days; 100% = glucose not different from lean values; read-out: Glucose Normalisation
Description: After an acclimation period of 2 weeks, animals were individually identified by ear notches, weighed, and bled via the tail vein for determination of initial glucose levels. Blood was collected (100 μl) from unfasted animals by wrapping each mouse in a towel, cutting the tip of the tail with a scalpel, and milking blood from the tail into a heparinized capillary tube (Fisher) balanced on the edge of the bench. Sample was discharged into a heparinized microtainer with gel separator (VWR) and retained on ice. Plasma was obtained after centrifugation at 4° C. and glucose measured immediately. Remaining plasma was frozen until the completion of the experiment, when glucose and triglycerides were assayed in all samples. Animals were grouped based on initial glucose levels and body weights. Beginning the following morning, mice were dosed daily by oral gavage for 7 days using a 20 gauge, 1½″ curved disposable feeding needle. […] On day 7, mice were weighed and bled (tail vein) 3 hours after dosing. Twenty-four hours after the 7th dose (i.e., day 8), animals were bled again (tail vein). Samples obtained from conscious animals on days 0, 7 and 8 were assayed for glucose. After the 24 hour bleed, animals were weighed and dosed for the final time. Three hours after dosing on day 8, animals were anesthetized by inhalation of isoflurane and blood obtained via cardiac puncture (0.5-0.7 ml). Whole blood was transferred to serum separator tubes, chilled on ice and permitted to clot. Serum was obtained after centrifugation at 4° C. and frozen until analysis for compound levels. After sacrifice by cervical dislocation, the liver, heart and epididymal fat pads were excised and weighed.
The absorbance of the dye produced is linearly related to the analyte in the sample. The assays were further modified in our laboratory for use in a 96 well format. […] An additional aliquot of sample, pipetted to a third well and diluted in 200 μl water, provided a blank for each specimen. […] Sample absorbances were compared to a standard curve (100-800, 10-500, and 100-400 mg/dl for glucose, triglycerides and total cholesterol, respectively). […] All samples from an experiment were assayed at the same time to minimize inter-assay variability.

Row | Structure (SMILES) | inhibition in vivo at 30 mg/kg [%]
1 | Cc1oc(-c2ccc(-c3c(F)cccc3F)cc2)nc1CCOc1ccc(OC(C)(C)C(=O)O)cc1 [Example 14, 2-(4-{2-[2-(2′,6′-Difluorobiphenyl-4-yl)-5-methyloxazol-4-yl]-ethoxy}-phenoxy)-2-methylpropionic acid] | 134
2 | Cc1oc(-c2ccc(-c3ccccc3)cc2)nc1CCOc1cccc(OC(C)(C)C(=O)O)c1 [Example 21, 2-{3-[2-(2-Biphenyl-4-yl-5-methyloxazol-4-yl)ethoxy]phenoxy}-2-methylpropionic acid] | 95
3 | Cc1sc(-c2cccc(-c3ccccc3)c2)nc1CCOc1ccc(OC(C)(C)C(=O)O)cc1 [Example 46, 2-{4-[2-(2-Biphenyl-3-yl-5-methyl-thiazol-4-yl)-ethoxy]-phenoxy}-2-methyl-propionic acid] | 29
